Results: patent publication US4487771A, “C-3 Substituted 1,4-benzodiazepines and pharmaceutical utilization thereof” (Medosan Industrie Biochimiche Riunite, S.p.A., priority 1983, dated 1984)

Assays:
Anti-ECS = assay type: in vivo; conditions: oral, 60 minutes before ECS
Protocol: (§1) The pharmacologic activity of the compounds of the invention has been assessed by the following classical tests which are known to indicate useful therapeutic activities:
ECS (E. A. Swinyard, W. C. Brown and L. S. Goodman: J. Pharmacol. Exp. Therapeutics, 106, 319-330, 1952.)
(§2) Main neuropharmacological effects of substituted benzodiazepine in oral
^b 60 minutes before ECS.

Analgesic = assay type: in vivo; conditions: oral, prolongs reaction time 50 percent of control group in 50 percent of treated animals, read-out: Analgesic DE50
Protocol: as §1
Analgesic (N. B. Eddy and D. Leimbach: J. Pharmacol. Exp. Therapeutics, 107, 385-393, 1953.)
as §2
^c at 240 minutes after drug treatment.
^c' at 60 minutes after drug treatment.
^(x) Prolongs reaction time 50 percent of control group in 50 percent

[1] = Spontaneous Motor Activity; assay type: in vivo; conditions: 0.5 h; oral; 30 minutes period starting 30 minutes after drug treatment; reduces movements counts 50 percent of control activity in group of 4 animals; read-out: Spontaneous Motor Activity DE50
Protocol: as §1
Spontaneous Motor Activity (W. J. Kinnard and C. J. Carr: J. Pharmacol. Exp. Therapeutics, 121, 354-361, 1957.)
as §2
^e measured in 30 minutes period starting 30 minutes after drug
^(xxx) Reduces movements counts 50 percent of control activity in
group of 4 animals: 5 groups/dose.

Miorelaxation = assay type: in vivo; conditions: oral, reduces "falling time" 50 percent of control group in 50 percent of treated animals, read-out: Miorelaxation DE50
Protocol: as §1
Miorelaxation (N. W. Dunham and T. S. Miya: J. Am. Pharm. Ass., 46, No. 3, 208-209, 1957.)
as §2
^d at 120 minutes after drug treatment.
^d' at 60 minutes after drug treatment.
^(xx) Reduces "falling time" 50 percent of control group in 50 percen

Anti-pentylenetetrazol = assay type: in vivo; conditions: oral, 30 minutes before pentylenetetrazol treatment 130 mg/kg s.c.
Protocol: as §1
Anti-pentylenetetrazol (L. O. Randall, W. Schallek, G. A. Heise, E. F. Keith and R. Bagdon: J. Pharmacol. Exp. Therapeutics, 129, 163-171, 1960).
as §2
^a 30 minutes before pentylenetetrazol treatment 130 mg/kg s.c.

[2] = Toxicity test, LD50 mice p.os; conditions: mouse, in vivo, po
Text: |Compound LD50 mice p. os in mg/kg

[3] = convulsions, read-out: Anti-ECS, Convulsions DE50
[4] = death, read-out: Anti-ECS, Death DE50
[5] = 4 h, at 240 minutes after drug treatment
[6] = 2 h, at 120 minutes after drug treatment
[7] = convulsions, read-out: Anti-pentylenetetrazol, Convulsions DE50
[8] = death, read-out: Anti-pentylenetetrazol, Death DE50

SMILES | ED50 (Anti-ECS; [3]) | ED50 (Anti-ECS; [4]) | ED50 (Analgesic; [5]) | ED50 [1] | ED50 (Miorelaxation; [6]) | ED50 (Anti-pentylenetetrazol; [7]) | ED50 (Anti-pentylenetetrazol; [8]) | LD50 [2] | ED50 (Analgesic; 1 h, at 60 minutes after drug treatment (c')) | ED50 (Miorelaxation; 1 h, at 60 minutes after drug treatment (d'))
CC(C)(C)OC(=O)NCCCC(=O)OC1N=C(c2ccccc2)c2cc(Cl)ccc2NC1=O (centres unmarked) [Example 2, 7-chloro-1,3-dihydro-5-phenyl-3-(4-tertiary-butoxycarbonylamino)butyryloxy-2H-1,4-benzodiazepine-2-one] | 60 mg/kg | 1 mg/kg | 42 mg/kg | 2.6 mg/kg | 16 mg/kg | 14 mg/kg | 7 mg/kg | > 1500 mg/kg |  | 
CC(=O)NCCCC(=O)OC1N=C(c2ccccc2Cl)c2cc(Cl)ccc2N(C)C1=O (centres unmarked) [Example 6, 3-(4-acetamido)-butyryloxy-7-chloro-5-o-chlorophenyl-1,3-dihydro-1-methyl-2H-1,4-benzodiazepine-2-one] | 5.5 mg/kg | 0.032 mg/kg |  | 1.9 mg/kg |  | 0.2 mg/kg | 0.16 mg/kg | > 1000 mg/kg | 19 mg/kg | 2 mg/kg
CC(=O)NCCCC(=O)OC1N=C(c2ccccc2)c2cc(Cl)ccc2NC1=O (centres unmarked) [Example 1, 3-(4-acetamido)butyryl-oxy-7-chloro-1,3-dihydro-5-phenyl-2H-1,4-benzodiazepine-2-one] | 38 mg/kg | 0.22 mg/kg | 26 mg/kg | 9 mg/kg | 6.5 mg/kg | 7 mg/kg | 4 mg/kg | 1500 mg/kg |  | 
O=C1Nc2ccc(Cl)cc2C(c2ccccc2)=NC1O (centres unmarked) [Oxazepam, reference compound] | 40 mg/kg | 4 mg/kg | 28 mg/kg | 4.2 mg/kg | 25 mg/kg | 20 mg/kg | 5.5 mg/kg | > 1500 mg/kg |  | 
CC(=O)NCCCC(=O)OC1N=C(c2ccccc2Cl)c2cc(Cl)ccc2NC1=O (centres unmarked) [Example 3, 3-(4-acetamido)butyryloxy-7-chloro-5-o-chlorophenyl-1,3-dihydro-2H-1,4-benzodiazepine-2-one] | 4.6 mg/kg | 0.02 mg/kg | 42 mg/kg | 0.18 mg/kg | 4.2 mg/kg | 2.6 mg/kg | 0.15 mg/kg | 1200 mg/kg |  | 
CC(=O)NCC(=O)OC1N=C(c2ccccc2)c2cc(Cl)ccc2NC1=O (centres unmarked) [Example 5, 3-acetamido-acetoxy-7-chloro-1,3-dihydro-5-phenyl-2H-1,4-benzodiazepine-2-one] | 12 mg/kg | 0.32 mg/kg | 34 mg/kg | 0.7 mg/kg | 15 mg/kg | 6 mg/kg | 1.5 mg/kg | 1400 mg/kg |  | 
CC(=O)NCCCC(=O)OC1N=C(c2ccccc2)c2cc(Cl)ccc2N(C)C1=O (centres unmarked) [Example 4, 3-(4-acetamido)butyryloxy-7-chloro-1,3-dihydro-1-methyl-5-phenyl-2H-1,4-benzodiazepine-2-one] | 4 mg/kg | 0.7 mg/kg | 30 mg/kg | 1.9 mg/kg | 19 mg/kg | 5 mg/kg | 2.2 mg/kg | 1000 mg/kg |  | 
